From US20230233577A1, “17Beta-ESTRADIOL/VITAMIN C MOLECULAR COMPLEX, PREPARATION METHOD, AND USE THEREOF” (ZHEJIANG MEDICINE CO., LTD.XINCHANG PHARMACEUTICAL FACTORY, priority 2020, published 2023)
Marks after values point to notes of the source that are not given here.

Legend:
Assay type in all cases: in vivo, ICR mice
[1] = system: ovariectomized female mice; assay: Trabecular bone density in ovariectomized female mice (CT of left femur); details: oral, 4 weeks, n = 11
[2] = system: ovariectomized female mice; assay: Uterine weight (endometrial hyperplasia side effect) in ovariectomized female mice; details: for Uterine weight (mean ± SD): ovariectomized mice, oral, n = 11
[3] = system: ovariectomized female mice; assay: Femoral length and ratio of femoral ash weight to femoral length in ovariectomized female mice; details: oral, 4 weeks, n = 11
[4] = system: ovariectomized female mice; assay: Tail bleeding time (thrombosis side effect) in ovariectomized female mice; details: for Bleeding time (tail, mean ± SD): ovariectomized mice, oral, 30 min after last administration, n = 11
[5] = system: ovariectomized female mice; assay: Femoral mineral content (BMC, ash weight/dry weight) in ovariectomized female mice; details: ratio femoral ash weight/dry weight, oral, 4 weeks, n = 11
[6] = system: ovariectomized female mice; assay: Femoral ash weight in ovariectomized female mice; details: oral, 4 weeks, n = 11
[7] = system: ovariectomized female mice; assay: Pathological sections of oviduct walls, endometria and uterine glands of ovariectomized female mice
Procedure: Pathological sections of oviduct walls, endometria, and uterine glands of ovariectomized female mice were prepared to evaluate the influence of the complex on the oviduct walls, endometria, and uterine glands of the ovariectomized mice.

[8] = system: ovariectomized female mice; assay: Femoral calcium content in ovariectomized female mice (OCPC method); details: oral, 4 weeks, n = 11
[9] = system: ovariectomized female mice; assay: Femoral dry weight in ovariectomized female mice; details: oral, 4 weeks, n = 11
[10] = at both doses of 2.3 μmol/kg/day and 0.23 μmol/kg/day
[11] = ovariectomized mouse treated at 2.3 μmol/kg/day
[12] = summary of pathological sections FIG. 3A to FIG. 8E

Thickness of endometrium (pathological section) [7, 11]: 23.08 μm
Thickness of oviduct wall (pathological section) [7, 11]: 152.11 μm
Lesions of uterine glands (in words) [7, 12]: could cause lesions of uterine glands
Structure (SMILES): C[C@]12CC[C@@H]3c4ccc(O)cc4CC[C@H]3[C@@H]1CC[C@@H]2O [17β-estradiol]
Trabecular bone density (mean ± SD) ([1]; dose 0.23 μmol/kg/day): 595.35 ± 30.47^d mg/cm^3
Trabecular bone density (mean ± SD) ([1]; dose 2.3 μmol/kg/day): 748.57 ± 33.37^a mg/cm^3
Effect on uterine weight (in words) [2, 10]: significantly increased the uterine weight
Uterine weight (mean ± SD) ([2]; dose 0.23 μmol/kg): 0.200 ± 0.041^a g
Uterine weight (mean ± SD) ([2]; dose 2.3 μmol/kg): 0.207 ± 0.045^a g
Ash weight/length (mean ± SD) ([3]; dose 0.23 μmol/kg/day): 1.72 ± 0.22 mg/mm
Ash weight/length (mean ± SD) ([3]; dose 2.3 μmol/kg/day): 2.02 ± 0.20^a mg/mm
Effect on tail bleeding time (in words) [4, 10]: significantly shortened the tail bleeding time
Bleeding time (tail, mean ± SD) ([4]; dose 0.23 μmol/kg/day): 640.6 ± 189.6^a s
Bleeding time (tail, mean ± SD) ([4]; dose 2.3 μmol/kg/day): 659.1 ± 203.8^a s
BMC (femoral mineral content, mean ± SD) ([5]; dose 0.23 μmol/kg/day): 0.560 ± 0.041 mg/mg
BMC (femoral mineral content, mean ± SD) ([5]; dose 2.3 μmol/kg/day): 0.620 ± 0.020^a mg/mg
Femoral ash weight (mean ± SD) ([6]; dose 0.23 μmol/kg/day): 29.08 ± 5.42^b mg
Femoral ash weight (mean ± SD) ([6]; dose 2.3 μmol/kg/day): 33.37 ± 3.21^a mg
Uterine gland pathology (in words) [7, 11]: the density of the tissue around the uterine gland is significantly reduced
Thickening of endometria and oviduct walls (in words) [7, 12]: could induce the thickening of endometria and oviduct walls
Femoral calcium content (mean ± SD) ([8]; dose 0.23 μmol/kg/day): 23.34 ± 0.70%
Femoral calcium content (mean ± SD) ([8]; dose 2.3 μmol/kg/day): 24.57 ± 1.85^a %
Femoral dry weight (mean ± SD) ([9]; dose 0.23 μmol/kg/day): 49.08 ± 6.02^b mg
Femoral dry weight (mean ± SD) ([9]; dose 2.3 μmol/kg/day): 54.42 ± 2.96^a mg
